# Laboratory results from patent publication US12285407B2, “Bis-indolylmethane derivatives and uses thereof” (The University of The West Indies, priority 2018, dated 2025).
# What was measured:
# [1] = system: Salmonella typhimurium ATCC 14028; experiment: Broth microdilution MIC of SP-BIMs; format: cell-based; conditions: Salmonella enterica, read-out: MIC Salmonella tvpkimurium ATCC 14028
# Description: Reference microorganisms used in this study included: Bacillus cereus (American Type Culture Collection (ATCC) No. 14579), Streptococcus pyogenes (ATCC No. 19615), Staphylococcus aureus (ATCC No. 12600), Enterococcus faecium (ATCC No. 19434), Corynebacterium diphtheriae (ATCC No. 27010), Escherichia coli (ATCC No. 35218), Salmonella typhimurium (ATCC No. 14028), Pseudomonas aeruginosa (ATCC No. 27853), Klebsiella pneumoniae (ATCC No. 49472), and Candida albicans (ATCC No. 22972).
# Prior to each experiment, cultures were streaked onto clean BHI agar plates and incubated at 35° C. for 24 hours. Colonies of the respective cultures were selected and inoculated in phosphate buffer saline (pH 7.5) to a 0.5 McFarland turbidity standard (equivalent to 10^8 CFU mL^−1). The bacterial suspension was then diluted 1:100 in cation adjusted Mueller Hinton Broth (ca-MHB) (Oxoid Ltd, Basingstoke, Hampshire, England).
# Stock solutions (50 mg mL^−1) of the SP-BIM test compounds were prepared in DMSO and stored at 4° C. Working preparations of each compound was made up to 1 mg/mL in sterile deionized water with a final DMSO concentration of 10%.
# To assess the antibiotic properties of the library of SP-BIMs, the broth microdilution assay was performed in 96-well microplates according to the Clinical and Laboratory Standards Institute 2014 Guidelines (CLSI 2014). The broth microdilution assay was used to determine the minimum inhibitory concentration (MIC). […] Bacterial cells (˜10^6 CFU mL^−1) were inoculated into cation adjusted-Mueller Hinton broth containing the test compound in a twofold serial dilution ranging between 250 μg mL^−1 and 0.02 μg mL^−1. Plates were incubated at 35° C. for 18 hours after which 50 μL of 5% resazurin solution was added to each well. Resazurin is a blue dye which, upon reduction by living cells, turns to a pink resorufin product. Plates were shaken for 1 hour after the addition of the dye. The MIC was recorded as the well with the lowest concentration of test compound where no color change was observed.
# [2] = system: Pseudomonas aeruginosa ATCC 27853; experiment: Broth microdilution MIC of SP-BIMs; format: cell-based; conditions: ATCC27853, SP-BIM alone, read-out: MIC Pseudomonas aeruginosa ATCC 27853
# sheep erythrocyte = experiment: Hemotoxicity (hemolysis assay); format: cell-based; conditions: 2% sheep erythrocyte solution; SP-BIMs 6, 11 and 18 at concentrations between 125-16 μg mL^−1
# Description: Hemotoxicity of the SP-BIMs were assessed following Wauford, “Hemolysis Assay”, protocols.io/view/hemolysis-assay-fxkbpkw (2016). Briefly, twofold serial dilutions of each test SP-BIM were added to 2% sheep erythrocyte solution and incubated for 30 minutes at 37° C. Samples were centrifuged at 2500 g for 5 minutes and the absorbance of the supernatants measured at 541 nm. Values were represented as percent hemolysis using freeze thaw cells as 100% lysis.
# [3] = system: Staphylococcus aureus ATCC 12600; experiment: Broth microdilution MIC of SP-BIMs; format: cell-based; conditions: ATCC12600, SP-BIM alone, read-out: MIC Staphylococcus aureus ATCC 12600
# [4] = system: Escherichia coli ATCC 35218; experiment: Broth microdilution MIC of SP-BIMs; format: cell-based; conditions: ATCC35218, SP-BIM alone, read-out: MIC Escherichia coli ATCC 35218
# [5] = system: Bacillus cereus ATCC 14579; experiment: Broth microdilution MIC of SP-BIMs; format: cell-based; conditions: ATCC14579, SP-BIM alone, read-out: MIC Bacillus cereus ATCC 14579
# [6] = system: Klebsiella pneumoniae ATCC 49472; experiment: Broth microdilution MIC of SP-BIMs; format: cell-based; conditions: ATCC49472, SP-BIM alone, read-out: MIC Klebisella pneumoniae ATCC 49472
# [7] = system: Enterococcus faecium ATCC 19434; experiment: Broth microdilution MIC of SP-BIMs; format: cell-based; conditions: ATCC19434, SP-BIM alone, read-out: MIC Enterococcus faecium ATCC 19434
# [8] = system: Candida albicans ATCC 22972; experiment: Broth microdilution MIC of SP-BIMs; format: cell-based; conditions: ATCC22972, SP-BIM alone, read-out: MIC Candida albicans ATCC 22972
# [9] = system: Streptococcus pyogenes ATCC 19615; experiment: Broth microdilution MIC of SP-BIMs; format: cell-based; conditions: ATCC19615, SP-BIM alone, read-out: MIC Streptococcus pyogenes ATCC 19615
# Gram-negative bacteria = experiment: Adjuvant broth microdilution; format: cell-based; conditions: SP-BIM at 50 μg mL^−1
# Description: To each well, the SP-BIM to be tested was added to a final concentration of 50 μg mL^−1. […] SP-BIMs were assessed as potential adjuvants based on their ability to reduce the MIC of the antibiotic against respective pathogen.
# Streptococcus pneumoniae [10] = experiment: Adjuvant broth microdilution (antibiotic MIC with SP-BIM at 50 μg/mL); format: cell-based; conditions: Streptococcus pneumoniae, Streptococcus pneumonia, SP-BIM at 50 μg mL^−1
# [11] = system: Corynebacterium diphtheriae ATCC 27010; experiment: Broth microdilution MIC of SP-BIMs; format: cell-based; conditions: ATCC27010, SP-BIM alone, read-out: MIC Corynebacterium diphtheriae ATCC 27010
# [12] = system: reference pathogen strains; experiment: Checkerboard synergy study, summary over pathogens; format: cell-based; conditions: Gram-positive pathogens
# Klebsiella pneumoniae = experiment: Checkerboard synergy (FICI) of antibiotics with SP-BIM; format: cell-based; conditions: SP-BIM 9 alone, one value per antibiotic's checkerboard, read-out: MIC SP-BIM 9 only
# Staphylococcus aureus = experiment: as above; format: cell-based
# Escherichia coli = experiment: as above; conditions: read-out: MIC SP-BIM 9 only, Escherichia coli, SP-BIM 9 alone, one value per antibiotic's checkerboard
# Streptococcus pneumoniae [13] = experiment: as above; format: cell-based; conditions: Streptococcus pneumoniae
# MRSA HS 10132 = experiment: Systemic non-lethal MRSA infection in mice (organ MRSA load); format: in vivo
# Bacillus cereus = experiment: Checkerboard synergy (FICI) of antibiotics with SP-BIM; format: cell-based; conditions: SP-BIM 9 alone, one value per antibiotic's checkerboard, read-out: MIC SP-BIM 9 only
# Enterococcus faecium = experiment: as above; format: cell-based
# [14] = read-out: MIC of Kanamvcin with SP-BIM
# [15] = read-out: MIC of Vancomvcin with SP-BIM
# [16] = MRSA, checkerboard with SP-BIM 9
# [17] = ampicillin and SP-BIM 9 at 5 mg kg^−1
# [18] = ampicillin and SP-BIM 9 at 10 mg kg^−1
structure (smiles),measurement,setting,value
"O=Cc1cccc(C(c2c[nH]c3ccccc23)c2c[nH]c3ccccc23)c1 [SP-BIM 6, 3-(di(1H-indol-3-yl)methyl)benzaldehyde]",MIC,[1],250 µg/mL
same,MIC,[2],250 µg/mL
same,hemotoxicity,sheep erythrocyte,very hemotoxic
same,MIC,[3],> 250 µg/mL
same,MIC,[4],> 250 µg/mL
same,MIC,[5],> 250 µg/mL
same,MIC,[6],> 250 µg/mL
same,MIC,[7],> 250 µg/mL
same,MIC,[8],250 µg/mL
same,MIC,[9],> 250 µg/mL
same,potentiating activity for Gram-negative bacteria,Gram-negative bacteria,No potentiating activity was observed
same,MIC,Streptococcus pneumoniae [10]; [14],4 µg/mL
same,MIC,Streptococcus pneumoniae [10]; [15],0.5 µg/mL
same,MIC,[11],> 250 µg/mL
"Oc1cccc(C(c2c[nH]c3ccccc23)c2c[nH]c3ccccc23)c1 [SP-BIM 9, 3-(di(1H-indol-3-yl)methyl)phenol]",MIC,[1],250 µg/mL
same,MIC,[2],250 µg/mL
same,FICI with most of the antibiotics,[12],≤ 0.5
same,MIC,[3],> 250 µg/mL
same,MIC,[4],> 250 µg/mL
same,MIC,[5],> 250 µg/mL
same,MIC,[6],> 250 µg/mL
same,MIC,[7],> 250 µg/mL
same,MIC,[8],250 µg/mL
same,MIC,[9],> 250 µg/mL
same,MIC,Klebsiella pneumoniae,≥ 250 µg/mL
same,MIC of aztreonam in combination with 32 μg mL^−1 of SP-BIM 9,"Staphylococcus aureus; MRSA, checkerboard",8 µg/mL
same,effect on MIC of trimethoprim,Staphylococcus aureus; [16],an increase in the MIC was observed
same,reduction of MICs of all the antibiotics except trimethoprim,Staphylococcus aureus; [16],at least 4 fold
same,MIC,"Staphylococcus aureus; Staphylococcus aureus, SP-BIM 9 alone, one value per antibiotic's checkerboard, read-out: MIC SP-BIM 9 only",> 250 µg/mL
same,MIC,Escherichia coli,≥ 250 µg/mL
same,MIC,"Streptococcus pneumoniae [13]; Streptococcus pneumonia (title: Streptococcus pyogenes), SP-BIM 9 alone, one value per antibiotic's checkerboard, read-out: MIC SP-BIM 9 only",> 250 µg/mL
same,effect on MIC of erythromycin,Streptococcus pneumoniae [13]; checkerboard with SP-BIM 9,no effect was observed
same,lowering of the MIC of the antibiotics,Streptococcus pneumoniae [13]; checkerboard with SP-BIM 9,at least 4 fold
same,MRSA counts in the liver,MRSA HS 10132; SP-BIM 9 only 5 mg kg^−1,3911 CFU g^−1
same,MRSA load in the spleen,MRSA HS 10132; SP-BIM 9 only 5 mg kg^−1,7327 CFU g^−1
same,MRSA counts in the liver,MRSA HS 10132; SP-BIM 9 only 10 mg kg^−1,2861 CFU g^−1
same,MRSA load in the spleen,MRSA HS 10132; SP-BIM 9 only 10 mg kg^−1,5800 CFU g^−1
same,MRSA counts in the liver,MRSA HS 10132; [17],167 CFU g^−1
same,MRSA load in the spleen,MRSA HS 10132; [17],288 CFU g^−1
same,MRSA counts in the liver,MRSA HS 10132; [18],189 CFU g^−1
same,MRSA load in the spleen,MRSA HS 10132; [18],211 CFU g^−1
same,MIC,Bacillus cereus,> 250 µg/mL
same,MIC,Streptococcus pneumoniae [10]; [14],4 µg/mL
same,MIC,Streptococcus pneumoniae [10]; [15],0.2 µg/mL
same,MIC,[11],> 250 µg/mL
same,MIC of vancomycin with 63 μg mL^−1 SP-BIM 9,Enterococcus faecium; Enterococcus faecium strain highly resistant to vancomycin,reduced to susceptible levels
same,MIC,"Enterococcus faecium; Enterococcus faecium, SP-BIM 9 alone, one value per antibiotic's checkerboard, read-out: MIC SP-BIM 9 only",≥ 250 µg/mL
"Nc1ccc(C(c2c[nH]c3ccccc23)c2c[nH]c3ccccc23)cc1 [SP-BIM 10, 4-(di(1H-indol-3-yl)methyl)aniline]",MIC,[1],250 µg/mL
same,MIC,[2],250 µg/mL
same,MIC,[3],> 250 µg/mL
same,MIC,[4],> 250 µg/mL
same,MIC,[5],> 250 µg/mL
same,MIC,[6],> 250 µg/mL
same,MIC,[7],> 250 µg/mL
same,MIC,[8],250 µg/mL
same,MIC,[9],> 250 µg/mL
same,potentiating activity for Gram-negative bacteria,Gram-negative bacteria,No potentiating activity was observed
same,MIC,Streptococcus pneumoniae [10]; [14],4 µg/mL
same,MIC,Streptococcus pneumoniae [10]; [15],0.5 µg/mL
same,MIC,[11],> 250 µg/mL
"Oc1ccccc1C(c1c[nH]c2ccccc12)c1c[nH]c2ccccc12 [SP-BIM 11, bis(indol-3-yl)-2-hydroxyphenylmethane]",MIC,[1],250 µg/mL
same,MIC,[2],250 µg/mL
same,hemotoxicity,sheep erythrocyte,very hemotoxic
same,MIC,[3],> 250 µg/mL
same,MIC,[4],> 250 µg/mL
same,MIC,[5],> 250 µg/mL
same,MIC,[6],> 250 µg/mL
same,MIC,[7],> 250 µg/mL
same,MIC,[8],250 µg/mL
same,MIC,[9],> 250 µg/mL
same,MIC,Streptococcus pneumoniae [10]; [14],125 µg/mL
same,MIC,Streptococcus pneumoniae [10]; [15],1 µg/mL
same,MIC,[11],> 250 µg/mL
"Oc1cc(Br)ccc1C(c1c[nH]c2ccccc12)c1c[nH]c2ccccc12 [SP-BIM 15, 5-bromo-2-(di(1H-indol-3-yl)methyl)phenol]",MIC,[1],250 µg/mL
same,MIC,[2],250 µg/mL
same,MIC,[3],> 250 µg/mL
same,MIC,[4],> 250 µg/mL
same,MIC,[5],125 µg/mL
same,MIC,[6],> 250 µg/mL
same,MIC,[7],125 µg/mL
same,MIC,[8],250 µg/mL
same,MIC,[9],125 µg/mL
same,potentiating activity for Gram-negative bacteria,Gram-negative bacteria,No potentiating activity was observed
same,MIC,Streptococcus pneumoniae [10]; [14],4 µg/mL
same,MIC,Streptococcus pneumoniae [10]; [15],0.2 µg/mL
same,MIC,[11],> 250 µg/mL
"COc1ccc(C(c2c[nH]c3ccccc23)c2c[nH]c3ccccc23)cc1 [SP-BIM 18, bis(indol-3-yl)-4-methoxyphenylmethane]",MIC,[1],250 µg/mL
same,MIC,[2],250 µg/mL
same,hemotoxicity,sheep erythrocyte,very hemotoxic
same,MIC,[3],> 250 µg/mL
same,MIC,[4],> 250 µg/mL
same,MIC,[5],> 250 µg/mL
same,MIC,[6],> 250 µg/mL
same,MIC,[7],> 250 µg/mL
same,MIC,[8],250 µg/mL
same,MIC,[9],> 250 µg/mL
same,MIC,Streptococcus pneumoniae [10]; [14],125 µg/mL
same,MIC,Streptococcus pneumoniae [10]; [15],1 µg/mL
same,MIC,[11],> 250 µg/mL
